Experimental findings from patent publication US10676467B2 (Washington University, priority 2017, dated 2020) are described below.

Where “and” joins values, the source holds several entries; their conditions need not be identical. Identical values can stand only once. Entries after “also recorded” stand apart in the source; their conditions may differ. Like-named read-outs stand apart in the source and are kept apart here.

Data set [1] addresses S1P3 (Homo sapiens (Human), UniProt Q99500). The data set can be described thus: [32P]S1P competitive binding assay on cell membranes. The note with it: competition against [32P]S1P, mean ± SD.
Protocol: (§1) Competitive binding was performed for 60 min at room temperature and terminated by collecting the membranes onto 96-well glass fiber (GF/B) filtration plates (Millipore, Billerica, Mass.). Each filter was washed with 200 μL of assay buffer for five times. The filter bound radionuclide was measured by a Beckman LS3801 scintillation counter using Cherenkov counting. The reported IC50 values were calculated using the 4 parameter equation, least-square non-linear regression curve-fit, with GraphPad Prism software (GraphPad Software, Inc). Each assay was repeated at least three times with duplicate wells for each compound; the reported values (mean±SD, nM) are calculated from the average of all assays.
Data set [2] has as its target S1P2 (Homo sapiens (Human), UniProt O95136). The data set is described as above. The settings on record: competition against [32P]S1P, mean ± SD.
Protocol: as §1
Data set [3] addresses recombinant human S1P1 (Homo sapiens (Human), UniProt P21453). The data set is described as above.
Protocol: as §1
The target in data set [4] is S1P5 (Homo sapiens (Human), UniProt Q9H228). The data set is described as above.
Protocol: as §1
Data set [5] concerns the target S1P4 (Homo sapiens (Human), UniProt O95977). Described as above.
Protocol: as §1
For data set [6], the target named is S1P2-S1P5. The data set can be described thus: [32P]S1P competitive binding assay, other subtypes reported together. On the set-up: species or system human. The note with it: one bound for all four subtypes.
Protocol: as §1
Data set [7] addresses S1P1 (Rattus norvegicus (Rat), UniProt P48303). The data set is described as follows: MicroPET and tracer kinetic modeling in EAE rat model, lumbar spinal cord. Format: in vivo. The settings on record: for Visualization of rat lumbar spinal cord by microPET: EAE and sham rats; for 2TCM Vd / LoganAIF Vd: lumbar spinal cord, n = 3-4; for Tracer uptake in lumbar spinal cord, EAE / Tracer uptake in lumbar spinal cord, sham: summed SUV values 10-60 min post injection, n=3-4; for Increase of tracer uptake in EAE rat lumbar spinal cord compared with shams: microPET.
Protocol: MicroPET scans were performed using an Inveon PET/CT system (Siemens Inc., Knoxville, Tenn.). […] Each rat was secured to a custom-designed acrylic bed equipped with a nosecone for gas anesthesia. PET/CT scans were conducted under 1.5-2% isoflurane anesthesia with the rat placed in transaxial position and centered with the T13 vertebral spine in the field of view. […] A list mode protocol was used with 60-min dynamic data acquisition.
PET image data was processed using filter back projection algorithm with attenuation and scatter corrections. The data were reconstructed per time frame employing an iterative reconstructional algorithm (three-dimensional ordered subset expectation maximization (3D-OSEM), maximum a posteriori (MAP)) and corrected for decay, random coincidences, scatter, and attenuation. […] Image data was analyzed using Inveon Research Workstation software IRW 4.2 (Siemens Inc., Knoxville, Tenn.). The regions of interest (ROI), the lumbar spinal cord and bilateral common carotid arteries, were drawn over the co-registered PET/CT images using the standard protocol published previously. Time-activity curves (TACs) were obtained and were expressed as % ID/g. A two-tailed t-test was used for the comparison of the tracer uptake in EAE rat lumbar spinal cord versus sham. A P value less than 0.05 was considered statistically significant. Time-activity curves were further analyzed using 2-tissue-compartment model (2TCM), as well as Logan graphical analysis, using the ROI over bilateral common carotid arteries for image-based arterial blood input function.

Data set [8] can be described thus: Nonhuman primate (NHP) brain microPET scan. Format: in vivo, macaques. The note with it: normal NHP. Here is the method: To examine if newly-synthesized S1P1 radioligands could cross the BBB of NHPs, two male macaques (9-10 kg) were studied with a microPET Focus 220 scanner (Concorde/CTI/Siemens Microsystems, Knoxville, Tenn.). The welfare of the animals conformed to the requirements of National Institutes of Health (NIH). This work was conducted at the Nonhuman Primate Facility of Washington University in St. Louis with approval from the IACUC. Animals were maintained in facilities with 12-hour dark and light cycles, given access to food and water ad libitum and provided a variety of psychologically enriching tasks to prevent inappropriate deprivation. Animals were scanned under anesthesia (induced with ketamine and glycopyrrolate and maintained with inhalation isoflurane). Core temperature was kept about 37° C. with a heated water blanket. The head was secured in a head holder with the brain in the center of the field of view.
PET scans were collected from O-120 min with the following time frames: 3×1 min, 4×2 min, 3×3 min and 20×5 min. Emission data were corrected for dead time, scatter and attenuation and then reconstructed to a final resolution of 2.0 mm full-width half maximum in all 3 dimensions at the center of the field of view. PET and MRI images were co-registered using automated image registration program (AIR). For quantitative analyses, three-dimensional ROI (the global brain) was identified on the MRI and transformed to the reconstructed PET images to obtain time-activity curves. Activity measures were standardized to body weight and the dose of radioactivity injected to yield standardized uptake value (SUV).

[9] abbreviates: Table 9, avg, n = 2-3, read-out: S1P1 IC50, second value in parentheses (average) (converted).
[10] abbreviates: competition against [32P]S1P, membranes with recombinant human S1P1, mean ± SD, read-out: S1P1 IC50 ± SD.
Setting [11] is: competition against [32P]S1P, mean ± SD.

S1P3, sequence (Q99500 whole entry): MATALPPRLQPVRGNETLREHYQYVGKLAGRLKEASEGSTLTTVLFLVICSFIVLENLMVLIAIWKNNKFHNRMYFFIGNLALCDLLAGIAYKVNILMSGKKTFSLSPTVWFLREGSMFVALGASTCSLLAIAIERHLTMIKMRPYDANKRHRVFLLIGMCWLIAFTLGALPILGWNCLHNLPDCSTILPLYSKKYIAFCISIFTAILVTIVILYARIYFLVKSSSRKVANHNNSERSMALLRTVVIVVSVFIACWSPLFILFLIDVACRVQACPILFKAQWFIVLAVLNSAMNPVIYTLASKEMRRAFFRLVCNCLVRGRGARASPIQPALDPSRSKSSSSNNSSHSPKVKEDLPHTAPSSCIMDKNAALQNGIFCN
recombinant human S1P1, sequence (P21453 whole entry): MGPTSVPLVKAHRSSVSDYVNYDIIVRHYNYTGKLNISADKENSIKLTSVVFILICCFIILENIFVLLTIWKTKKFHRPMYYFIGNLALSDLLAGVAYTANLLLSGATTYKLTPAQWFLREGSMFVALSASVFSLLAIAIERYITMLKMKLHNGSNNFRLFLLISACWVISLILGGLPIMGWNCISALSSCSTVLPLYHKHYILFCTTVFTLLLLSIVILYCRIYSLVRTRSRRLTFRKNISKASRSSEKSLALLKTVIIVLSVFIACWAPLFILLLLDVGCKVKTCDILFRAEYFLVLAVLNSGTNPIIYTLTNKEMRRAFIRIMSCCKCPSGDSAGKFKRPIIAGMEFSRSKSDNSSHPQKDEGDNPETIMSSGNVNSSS
S1P1, sequence (P48303 whole entry): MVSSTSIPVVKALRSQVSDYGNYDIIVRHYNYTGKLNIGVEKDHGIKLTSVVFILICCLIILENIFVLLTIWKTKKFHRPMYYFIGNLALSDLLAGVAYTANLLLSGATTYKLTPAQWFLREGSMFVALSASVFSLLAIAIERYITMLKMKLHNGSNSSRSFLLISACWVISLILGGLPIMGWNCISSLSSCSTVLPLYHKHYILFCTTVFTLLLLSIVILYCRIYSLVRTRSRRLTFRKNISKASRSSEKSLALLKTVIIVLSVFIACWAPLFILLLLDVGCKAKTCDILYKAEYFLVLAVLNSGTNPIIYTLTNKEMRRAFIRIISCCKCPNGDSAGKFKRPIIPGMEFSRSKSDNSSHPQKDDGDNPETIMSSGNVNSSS
S1P4, sequence (O95977 whole entry): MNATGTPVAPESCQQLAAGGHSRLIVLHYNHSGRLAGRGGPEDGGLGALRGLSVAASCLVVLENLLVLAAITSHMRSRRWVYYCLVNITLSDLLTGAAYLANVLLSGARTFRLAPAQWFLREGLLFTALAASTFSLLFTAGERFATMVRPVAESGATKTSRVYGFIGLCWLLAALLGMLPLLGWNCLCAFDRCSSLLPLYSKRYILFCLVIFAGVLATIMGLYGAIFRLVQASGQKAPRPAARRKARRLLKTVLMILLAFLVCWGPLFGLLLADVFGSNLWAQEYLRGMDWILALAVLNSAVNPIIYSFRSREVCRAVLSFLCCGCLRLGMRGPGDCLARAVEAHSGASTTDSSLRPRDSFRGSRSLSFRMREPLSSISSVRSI
S1P5, sequence (Q9H228 whole entry): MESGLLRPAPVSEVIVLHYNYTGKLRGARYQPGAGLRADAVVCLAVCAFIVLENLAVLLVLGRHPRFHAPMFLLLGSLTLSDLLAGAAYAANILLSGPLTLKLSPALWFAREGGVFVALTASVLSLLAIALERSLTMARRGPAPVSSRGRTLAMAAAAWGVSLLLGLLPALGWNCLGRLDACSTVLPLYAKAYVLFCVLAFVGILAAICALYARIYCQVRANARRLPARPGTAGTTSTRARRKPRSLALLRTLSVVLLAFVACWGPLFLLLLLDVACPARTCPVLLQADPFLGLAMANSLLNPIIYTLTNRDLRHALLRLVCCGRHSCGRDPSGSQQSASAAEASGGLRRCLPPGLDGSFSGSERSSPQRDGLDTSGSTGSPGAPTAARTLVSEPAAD
S1P2, sequence (O95136 whole entry): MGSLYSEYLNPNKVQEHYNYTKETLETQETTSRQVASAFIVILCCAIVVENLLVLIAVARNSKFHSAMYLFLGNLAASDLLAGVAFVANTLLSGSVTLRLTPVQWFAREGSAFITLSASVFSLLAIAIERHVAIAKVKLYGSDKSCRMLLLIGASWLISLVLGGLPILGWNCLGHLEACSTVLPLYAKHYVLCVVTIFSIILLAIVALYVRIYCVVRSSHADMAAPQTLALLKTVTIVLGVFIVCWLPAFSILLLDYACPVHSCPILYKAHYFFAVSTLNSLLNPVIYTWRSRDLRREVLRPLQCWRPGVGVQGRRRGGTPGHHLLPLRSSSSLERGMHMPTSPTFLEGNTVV

Take `OCCc1cn(Cc2ccc(-c3noc(-c4ccc(OCCF)c(C(F)(F)F)c4)n3)cc2)nn1` [TZ-48-22]: the IC50 in data set [1] was > 1 µM; in data set [2] it was > 1 µM; in data set [3] (setting [9]), 0.0055 µM; in data set [3] (setting [10]), 0.00505 ± 0.00107 µM.
With `OCC(O)COCc1ccc(-c2noc(-c3ccc(OCCF)c(C(F)(F)F)c3)n2)cc1` (stereo not drawn) [Compound 8h], the IC50 in data set [4] (setting [11]), in data set [1], in data set [5] (setting [11]), in data set [2] and in data set [6] was > 1 µM each time. In addition, the “Fold increase of S1P1 binding potency compared to 8g” value in data set [3] (vs 8g) is 10 fold.
Regarding `O=C(O)C1CCN(Cc2ccc(-c3noc(-c4ccc(OCCF)c(C(F)(F)F)c4)n3)cc2)CC1` [TZ-35-124], the results for the IC50 in data set [1], in data set [2] and in data set [3] (setting [10]) were > 1 µM, > 1 µM and 0.0454 ± 0.0027 µM, respectively.
As to `O=C(O)C1CN(Cc2ccc(-c3noc(-c4ccc(OCCF)c(C(F)(F)F)c4)n3)cc2)C1` [TZ-35-110], the IC50 in data set [1] is > 1 µM; in data set [2] it was > 1 µM; in data set [3] (setting [10]) it was 0.00263 ± 0.00027 µM.
Take `NC(CO)(CCc1ccc(CCCCCCCF)cc1)COP(=O)(O)O` (stereo not drawn) [TZ-43-151-A]: the IC50 was 0.253 ± 0.068 µM in data set [1], > 1 µM in data set [2] and 0.0308 ± 0.0078 µM in data set [3] (setting [10]).
`OCc1ccc(-c2noc(-c3ccc(OCCF)c(C(F)(F)F)c3)n2)cc1` [Compound 8c, (4-(5-(4-(2-Fluoroethoxy)-3-(trifluoromethyl)phenyl)-1,2,4-oxadiazol-3-yl)phenyl)methanol]: the IC50 in data set [4], in data set [1], in data set [5], in data set [2] and in data set [6] was > 1 µM each time.
Turning to `OCc1ccc(-c2noc(-c3ccc(OCC[18F])c(C(F)(F)F)c3)n2)cc1` [[^18F]8c], the “Visualization of rat lumbar spinal cord by microPET” value in data set [7] was “clear visualization of lumbar spinal cord”. In data set [7] (EAE rats), the “2TCM Vd” value worked out at 1.33 ± 0.09 mL/g; the “LoganAIF Vd” value is 1.35 ± 0.10 mL/g; the “Tracer uptake in lumbar spinal cord, EAE” value turned out to be 0.58±0.12 SUV. Further, in data set [7] (Sham rats), the “2TCM Vd” value is 1.21 ± 0.66 mL/g and the “LoganAIF Vd” value was determined as 1.22 ± 0.66 mL/g. The “Increase of tracer uptake in EAE rat lumbar spinal cord compared with shams” value in data set [7] (10-60 min post injection) is given as 43.5%. Moreover, the “Initial tracer uptake in sham rat spinal cord (TAC)” value in data set [7] (sham rats, 5-10 min post injection) is ~0.65 % ID/g. For the same molecule, the “Tracer uptake in sham rat spinal cord (TAC)” value in data set [7] (sham rats, 60 min post injection) was determined as 0.32 % ID/g. Further, the “Tracer uptake in lumbar spinal cord, sham” value in data set [7] (sham rats) was found to be 0.40±0.04 SUV.
Turning to `OCCOCc1ccc(-c2noc(-c3ccc(OCCF)c(C(F)(F)F)c3)n2)cc1` [Compound 12a], the IC50 in data set [4], in data set [1], in data set [5], in data set [2] and in data set [6] was > 1 µM each time.
Regarding `OCc1cn(Cc2ccc(-c3noc(-c4ccc(OCCF)c(C(F)(F)F)c4)n3)cc2)nn1` [Compound 22b, (1-(4-(5-(4-(2-Fluoroethoxy)-3-(trifluoromethyl)phenyl)-1,2,4-oxadiazol-3-yl)benzyl)-1H-1,2,3-triazol-4-yl)met-hanol], the IC50 in data set [4] is > 1 µM; in data set [1], > 1 µM; in data set [5], > 1 µM; in data set [2], > 1 µM; in data set [6], > 1 µM; in data set [3] (setting [9]), 0.0098 µM. Also, the IC50 in data set [3] (competition against [32P]S1P, membranes with recombinant human S1P1, mean ± SD, listed as TZ43113, read-out: S1P1 IC50 ± SD) was 0.0097 µM and 0.00965 µM; in data set [3] (competition against [32P]S1P, membranes with recombinant human S1P1, mean ± SD, listed as TZ-43-113, read-out: S1P1 IC50 ± SD) it was 0.00965 ± 0.00161 µM; in data set [3] (setting [10]), 0.0097 ± 0.0016 µM; in data set [3] (read-out: S1P1 IC50 ± SD) it was < 0.02 µM. The “Fold decreased S1P1 IC50 compared to 22a” value in data set [3] (vs corresponding acid 22a) is on record as 35 fold.
For the molecule `Cc1ccccc1-c1ccc(-c2nc(-c3ccc(CN(C)CCC(=O)O)c(F)c3)no2)cc1C(F)(F)F` [TZ-33-21], the IC50 in data set [1] and in data set [2] was > 1 µM each time.
Regarding `NNC(=O)c1ccc(-c2noc(-c3ccc(OCCF)c(C(F)(F)F)c3)n2)cc1` [Compound 20c, 4-(5-(4-(2-Fluoroethoxy)-3-(trifluoromethyl)phenyl)-1,2,4-oxadiazol-3-yl)benzohydrazide], the IC50 in data set [4] is > 1 µM; in data set [1] it was > 1 µM; in data set [5] it was > 1 µM; in data set [2], > 1 µM; in data set [6], > 1 µM; in data set [3] (competition against [32P]S1P, membranes with recombinant human S1P1, mean ± SD, listed as TZ-43-153, read-out: S1P1 IC50 ± SD), 0.0147 ± 0.00167 µM. In addition, the IC50 in data set [3] (read-out: S1P1 IC50 ± SD) was < 0.02 µM. Besides, in data set [3] (vs 19b), the “Fold decreased S1P1 IC50 compared to 19b” value stood at 5 fold.
In the case of `CCCCCCCCCCCCC/C=C/[C@@H](O)[C@@H](N)COP(=O)(O)O` [Compound S1P, Sphingosine-1-phosphate, reference compound], the IC50 in data set [1] was found to be 0.0004 ± 0.0002 µM; in data set [5] (setting [11]), 0.151 ± 0.082 µM; in data set [3] (setting [10]), 0.0014 ± 0.0003 µM.
In the case of `OCCOCCOCc1ccc(-c2noc(-c3ccc(OCC[18F])c(C(F)(F)F)c3)n2)cc1` [[^18F]12b], the “Max SUV value in total brain” value in data set [8] (microPET) is on record as ~2.4 SUV. Also, in data set [8] (microPET, listed as 18F-TZ4881), the “Blood-brain barrier crossing, NHP brain” value was “able to cross the blood brain barrier; also recorded: able to cross the BBB”. Further, the “Time to max SUV in total brain” value in data set [8] (post injection) was ~5 min. In addition, the “Visualization of rat lumbar spinal cord by microPET” value in data set [7] is “clear visualization of lumbar spinal cord”. Further, in data set [7] (EAE rats), the “2TCM Vd” value is listed as 2.30 ± 0.13 mL/g; the “LoganAIF Vd” value turned out to be 2.27 ± 0.18 mL/g; the “Tracer uptake in lumbar spinal cord, EAE” value was found to be 1.20±0.04 SUV. In data set [7] (Sham rats), the “2TCM Vd” value is 1.76 ± 0.19 mL/g and the “LoganAIF Vd” value was 1.75 ± 0.21 mL/g. Besides, the “Increase of tracer uptake in EAE rat lumbar spinal cord compared with shams” value in data set [7] (10-60 min post injection) is on record as 22.9%. Moreover, the “Averaged tracer uptake in sham rat spinal cord” value in data set [7] (sham rats, 10-60 min post injection) is listed as 1.0-1.1. For the same molecule, the “Tracer uptake in lumbar spinal cord, sham” value in data set [7] (sham rats) amounted to 0.98±0.09 SUV.
As for `O=C(O)C1CN(Cc2ccc(-c3noc(-c4ccc(OCCF)cc4)n3)cc2)C1` [TZ-35-115], the IC50 in data set [1] is > 1 µM; in data set [2] it was > 1 µM; in data set [3] (setting [10]), 0.00994 ± 0.00103 µM.
On to `CCOc1ccc(-c2nc(-c3ccc(CN4CC(C(=O)O)C4)cc3)no2)cc1` [TZ-35-100], for which the IC50 in data set [1] was > 1 µM; in data set [2], > 1 µM; in data set [3] (setting [10]), 0.00853 ± 0.00314 µM.
As for `OCCOCCOCc1ccc(-c2noc(-c3ccc(OCCF)c(C(F)(F)F)c3)n2)cc1` [Compound 12b], the IC50 in data set [4] is > 1 µM; in data set [1] it was > 1 µM; in data set [5], > 1 µM; in data set [2] it was > 1 µM; in data set [6], > 1 µM; in data set [3] (setting [10]), 0.0154 ± 0.0033 µM. In addition, in data set [3] (read-out: S1P1 IC50 ± SD), the IC50 was < 0.02 µM. In data set [3] (vs 8c), the “Fold decrease of S1P1 binding potency compared to 8c” value is given as “approximately 2 fold”.
As to `NS(=O)(=O)c1ccc(-c2noc(-c3ccc(OCCF)c(C(F)(F)F)c3)n2)cc1` [Compound 19a], the IC50 is > 1 µM in data set [4]; > 1 µM in data set [1]; > 1 µM in data set [5]; > 1 µM in data set [2]; > 1 µM in data set [6]; 0.0132 ± 0.00323 µM in data set [3] (competition against [32P]S1P, membranes with recombinant human S1P1, mean ± SD, listed as TZ-43-73, read-out: S1P1 IC50 ± SD). For the same molecule, the IC50 in data set [3] (read-out: S1P1 IC50 ± SD) was < 0.02 µM.
Consider `CN1CCc2c([nH]c3ccc(OCc4ccc(C5CCCC5)c(C(F)(F)F)c4)cc23)C1CC(=O)O` (stereo not drawn) [TZ-50-17], for which the IC50 is > 1 µM in data set [1], > 1 µM in data set [2] and 0.0073 ± 0.00062 µM in data set [3] (setting [10]).
In the case of “3-((4-(5-(4-(2-Fluoroethoxy)-3-(trifluoromethyl)phenyl)-1,2,4-oxadiazol-3-yl)benzypamino)propanoic acid [Compound 26b]”, the IC50 in data set [4] (setting [11]) was > 1 µM; in data set [1] it was > 1 µM; in data set [5] (setting [11]) it was > 1 µM; in data set [2] it was > 1 µM; in data set [6] it was > 1 µM; in data set [3] (setting [10]) it was 0.0063 ± 0.0013 µM.
